Earlier results as cited in patent publication US20170001952A1, “FUMARATE COMPOUNDS, PHARMACEUTICAL COMPOSITIONS THEREOF, AND METHODS OF USE” (priority 2015, published 2017).

aqueous solubility: poor aqueous solubility
Structure (SMILES): COC(=O)/C=C/C(=O)OC [DMF, dimethylfumarate]
